Like-named read-outs stand apart in the source and are kept apart here. Blank lines part the entries; values can stand above or below the compound they belong to. No end group written: not given here.
Legend:
CRF receptor type 1 = test system: CRF receptor type 1; parameters: method as in PMID 17057757; settings: blockade of UCN1; cited from earlier work
CRF2 receptor = settings: cited from earlier work
CRF2 receptor (hCRF2α) [1] = biological target: T1, CRF2 receptor (hCRF2α) (Homo sapiens, UniProt Q13324); test: Antagonism of agonist-mediated cAMP accumulation in Cos7 cells expressing CRF2 receptors; format: cell-based; settings: for Kb: hCRF2α, global Schild analysis, mean ± SEM, n = 5, read-out: antagonist potency (pKB) (converted)
T1 construct: host or cells: Cos7 cells, transient transfection (PEI), pcDNA3.0/3.1 vector
T1 sequence (Q13324 1-411): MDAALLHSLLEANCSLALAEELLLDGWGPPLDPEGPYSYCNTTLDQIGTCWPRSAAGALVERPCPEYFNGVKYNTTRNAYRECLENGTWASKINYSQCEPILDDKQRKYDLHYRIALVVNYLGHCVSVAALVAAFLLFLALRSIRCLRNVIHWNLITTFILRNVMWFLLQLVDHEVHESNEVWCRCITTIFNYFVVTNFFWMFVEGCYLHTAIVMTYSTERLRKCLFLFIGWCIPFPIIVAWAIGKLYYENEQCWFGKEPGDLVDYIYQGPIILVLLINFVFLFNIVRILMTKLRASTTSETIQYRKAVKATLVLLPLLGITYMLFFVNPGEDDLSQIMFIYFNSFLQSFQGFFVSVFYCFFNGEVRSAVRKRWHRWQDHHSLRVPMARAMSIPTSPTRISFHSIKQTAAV
From the text: (§1) Plasmids containing hCRF1α and hCRF2α (GenBank accession numbers AY457172 and AY449734) were obtained from the cDNA Resource Centre (Bloomsburg University) and are referred to as CRF1 and CRF2 in this manuscript. Hemagglutinin (HA) epitope‐tagged human Calcitonin (CT) receptor (CT(a) splice variant) and myc‐tagged human RAMP1 were used as described previously. ^27 HA‐tagged human calcitonin receptor‐like receptor (CLR), N‐terminal FLAG‐tagged human RAMP3 and N‐terminal myc‐tagged human RAMP3 were a gift from Professor David Poyner (Aston University) and Professor Patrick Sexton (Monash University), respectively. N‐terminal FLAG‐tagged human RAMP2 was used as described previously. ^28 All receptors and RAMPs were cloned in pcDNA3.0 or pcDNA3.1 plasmid vectors. All plasmid inserts were sequenced at the Centre for Genomics, Proteomics and Metabolomics (University of Auckland) and the sequences were verified prior to use.
(§2) Cos7, HEK‐293S, and HEK‐293T cells were cultured as described previously. ^28 , ^29 Cos7 cells were originally supplied by the ATCC to Associate Professor Nigel Birch (University of Auckland). HEK‐293S cells were a gift from Professor David Poyner (Aston University) and HEK‐293T cells a gift from Professor John Taylor (University of Auckland). Briefly, all cell lines were cultured in Dulbecco's Modified Eagle Medium (DMEM) supplemented with 8% heat inactivated fetal bovine serum (FBS) and maintained in a humidified incubator at 37°C with 5% CO2. For transfection, cells were counted (Countess CounterTM; Life Technologies) and plated at a density of 20 000 cells per well in 96‐well plates. The cells were transiently transfected 48 hours prior to assaying using polyethylenimine (PEI), as described previously. ^28 , ^29 In all experiments a total of 0.25 μg DNA was transfected per well. In the majority of experiments 0.25 μg DNA of receptor‐containing plasmid or the pcDNA3.1 plasmid without an insert was used. For experiments involving RAMPs, 0.125 μg of receptor DNA and 0.125 μg of RAMP‐containing plasmid DNA were transfected to give a 1:1 ratio of receptor to RAMP. Where the RAMP or receptor were transfected alone, the ratio of DNA was made up with the pcDNA3.1 plasmid.
(§3) cAMP accumulation in Cos7 cells transfected with hCRF1α or hCRF2α receptors was measured using the LANCE cAMP detection assay kit (PerkinElmer Life and Analytical Sciences) as described previously. ^30 Briefly, culture media was removed and replaced with DMEM containing 0.1% bovine albumin serum (BSA) and 1 mmol/L 3‐isobutyl‐1‐methylxanthine (IBMX) for 30 minutes at 37°C. Cells were incubated for an additional 15 minutes at 37°C with media or agonist concentrations of 1 pmol/L to 1 µmol/L for agonist only assays or 10 pmol/L to 10 µmol/L concentrations for antagonist experiments. Antagonists were added simultaneously or immediately prior to the addition of agonists. To stop cell stimulation and extract cAMP, the contents of the wells were replaced with 50 µL absolute ethanol. Samples were left at −20°C for a minimum of 10 minutes. The ethanol was evaporated and replaced with 50 µL of cAMP detection buffer. Samples were shaken for 15 minutes before 5 µL cell lysate was transferred to a white 384‐well optiplate and processed for cAMP quantification as described previously. ^31 Samples were read using an Envision plate reader (PerkinElmer). cAMP concentrations were determined from a standard curve generated in duplicate.
(§4) In all experiments the position of peptides and antagonists (pharmacology) or transfected receptors (ELISAs) on assay plates was randomized during each independent experiment, which are independent biological replicates. In all cases, duplicate, triplicate, or quadruplicate technical replicates were conducted for each independent experiment.

CRF2 receptor (hCRF2α) [2] = biological target: T1, CRF2 receptor (hCRF2α); test: cAMP accumulation (LANCE) in Cos7 cells transfected with hCRF2α, agonist stimulation; format: cell-based; settings: COS-7; cAMP, CRF2 receptor, antagonist alone; n = 3; read-out: E max (partial agonism of antagonist)
From the text: as §1, §2, §3, §4

CRF1 receptor (hCRF1α) [3] = biological target: T2, CRF1 receptor (hCRF1α) (Homo sapiens, UniProt P34998); test: Antagonism of agonist-mediated cAMP accumulation in Cos7 cells expressing CRF1 receptors; format: cell-based; settings: for Kb: hCRF1α, global Schild analysis, mean ± SEM, read-out: antagonist potency (pKB) (converted)
T2 construct: host or cells: Cos7 cells, transient transfection (PEI), pcDNA3.0/3.1 vector
T2 sequence (P34998 24-415): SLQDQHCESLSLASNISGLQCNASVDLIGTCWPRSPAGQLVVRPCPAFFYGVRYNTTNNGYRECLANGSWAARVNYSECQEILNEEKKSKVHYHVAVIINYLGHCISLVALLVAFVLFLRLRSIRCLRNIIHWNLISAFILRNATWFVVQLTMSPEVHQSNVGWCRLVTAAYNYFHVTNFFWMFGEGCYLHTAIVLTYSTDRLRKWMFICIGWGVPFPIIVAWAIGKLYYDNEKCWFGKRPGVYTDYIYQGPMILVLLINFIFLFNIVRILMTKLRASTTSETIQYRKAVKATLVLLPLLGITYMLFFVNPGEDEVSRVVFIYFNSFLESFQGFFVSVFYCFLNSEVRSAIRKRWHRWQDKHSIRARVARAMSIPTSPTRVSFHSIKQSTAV

CRF1 receptor (hCRF1α) [4] = biological target: T2, CRF1 receptor (hCRF1α); test: cAMP accumulation (LANCE) in Cos7 cells transfected with hCRF1α, agonist stimulation; format: cell-based; settings: cAMP, CRF1 receptor, antagonist alone, n = 3
From the text: as §1
as §2, with “Where the RAMP or receptor were transfected alone, the ratio of DNA was made up with the pcDNA3.1 plasmid.” left out
cAMP accumulation in Cos7 cells transfected with hCRF1α or hCRF2α receptors was measured using the LANCE cAMP detection assay kit (PerkinElmer Life and Analytical Sciences) as described previously. ^30 Briefly, culture media was removed and replaced with DMEM containing 0.1% bovine albumin serum (BSA) and 1 mmol/L 3‐isobutyl‐1‐methylxanthine (IBMX) for 30 minutes at 37°C. […] Samples were shaken for 15 minutes before 5 µL cell lysate was transferred to a white 384‐well optiplate and processed for cAMP quantification as described previously. ^31 Samples were read using an Envision plate reader (PerkinElmer). cAMP concentrations were determined from a standard curve generated in duplicate. […]

Compound: CCCCN(CC)c1nc(C)nc2c1c(C)c(C)n2-c1c(C)cc(C)cc1C [antalarmin]
mode of antagonism of Gαi activity (CRF receptor type 1): non‐competitive antagonist of Gαi activity | mode of antagonism of Gαs activity (CRF receptor type 1): competitive antagonist of Gαs

potency against CRF‐mediated relative to UCN1‐mediated cAMP signaling (CRF2 receptor (hCRF2α) [1]; CRF2 receptor): approximately 10 fold | Kb (CRF2 receptor (hCRF2α) [1]; agonist CRF, cAMP): 0.302 nM | Kb (CRF2 receptor (hCRF2α) [1]; agonist UCN1, cAMP): 3.63 nM | potency at CRF2 receptor compared to CRF1 receptor (CRF2 receptor (hCRF2α) [1]; antagonism of either CRF or UCN1‐induced cAMP signaling): at least 1000 fold | Emax (CRF2 receptor (hCRF2α) [2]): 11% | Kb (CRF1 receptor (hCRF1α) [3]; agonist CRF, cAMP, n = 5): 479 nM | Kb (CRF1 receptor (hCRF1α) [3]; agonist UCN1, cAMP, n = 5 (CP‐376,395), n = 3 (astressin2B)): > 5010 nM | antagonism of UCN1‐mediated cAMP signaling (CRF1 receptor (hCRF1α) [3]; up to 5 μmol/L, CRF1 receptor): did not measurably antagonize
Compound: CCCC[C@H](NC(=O)[C@H](CCCCN)NC(=O)[C@H](CCCNC(=N)N)NC(=O)[C@H](CC(C)C)NC(=O)[C@](C)(CC(C)C)NC(=O)[C@H](Cc1c[nH]cn1)NC(=O)[C@@H](Cc1ccccc1)NC(=O)[C@H](CO)NC(=O)[C@H](CC(C)C)NC(=O)[C@H](CC(=O)O)NC(C)=O)C(=O)N[C@H](C(=O)N[C@@H](CCC(=O)O)C(=O)N[C@H](C(=O)N[C@@H](CCC(=O)O)C(=O)N[C@@H](CCCCN)C(=O)N[C@@H](CCC(N)=O)C(=O)N[C@@H](CCC(=O)O)C(=O)N[C@@H](CCCCN)C(=O)N[C@@H](CCC(=O)O)C(=O)N[C@@H](CCCCN)C(=O)N[C@@H](CCC(N)=O)C(=O)N[C@@H](CCC(N)=O)C(=O)N[C@@H](C)C(=O)N[C@H]1CCC(=O)NCCCC[C@@H](C(=O)N[C@@H](CC(C)C)C(=O)N[C@@H](CC(C)C)C(=O)N[C@@H](CC(C)C)C(=O)N[C@@H](CC(=O)O)C(=O)N[C@@](C)(CC(C)C)C(=O)N[C@H](C(N)=O)[C@@H](C)CC)NC(=O)[C@H](CC(N)=O)NC(=O)[C@H](CC(N)=O)NC1=O)[C@@H](C)CC)[C@@H](C)CC [astressin2B]
selectivity (CRF2 receptor): selective antagonist of the CRF2 receptor | partial agonism (CRF1 receptor (hCRF1α) [4]): this was not the case at the CRF1 receptor

Emax (CRF1 receptor (hCRF1α) [4]; COS-7, read-out: E max (partial agonism of antagonist)): 14.8%
Compound: DLTFHLLREMLEMAKAEQEAEQAALNRLLLEEA-NH2 [α‐helical CRF(9‐41)] [listing 1 of 2 here]

Kb (CRF2 receptor (hCRF2α) [1]; agonist CRF, cAMP): 18.6 nM | Kb (CRF1 receptor (hCRF1α) [3]; agonist CRF, cAMP, n = 5): 170 nM
Compound: DLTFHLLREMLEMAKAEQEAEQAALNRLLLEEA-NH2 [α‐helical CRF(9‐41)] [listing 2 of 2 here]
